The source of these data is US12053522B2, “Pro-inflammatory and anti-cancer functions of toll-like receptor 4 antagonists” (Children's Medical Center Corporation, priority 2015, dated 2024).

Type in all cases: cell-based, mouse
Assay [1] relates to bone marrow derived DCs. Briefly: IL-1β release from DCs (ELISA). Here is the method:
NLRP3 KO and ASC KO mice were kindly provided by Dr. T. Horng, Harvard School of Public Health. Caspase-11 KO mice were kindly provided by Dr. Junying Yuan, Harvard Medical School. Caspase-1 single KO mice were kindly provided by Thirumala-Devi Kanneganti (St. Judes). DCs were differentiated from bone marrow in IMDM (Gibco), 10% B16-GM-CSF derived supernatant, 2 μM 2-mercaptoethanol and 10% FBS and used after 6 day of culture. […] MO were differentiated from bone marrow in DMEM (Gibco), 30% L929 supernatant, and 10% FBS. Immortal MΦs were cultured in DMEM supplemented with 10% L929 supernatant and 10% FBS. […] For experiments using pan-caspase inhibitor, cells were treated with zVADfmk (20 μM) 30 min before inflammasome activation stimuli addition. Cycloheximide (50 ng/ml) was added at the time of stimuli administration. Transfection with DOTAP was performed following the manufacturer instructions. […] 30 min later, the DOTAP/LPS or DOTAP/oxPAPC complex were added to the culture.
RNA was isolated from cell cultures using Qiashedder (Qiagen) and GeneJET RNA Purification Kit (Life Technologies). Purified RNA was analyzed for gene expression on a CFX384 real time cycler (Bio-rad) using TaqMan RNA-to-CT 1-Step Kit (Applied Biosystems) with probes purchased from Life Technologies specific for viperin (Mm00491265_m1), IFNb1 (Mm00439552_s1), IL6 (Mm00446190_m1), caspase-1 (Mm00438023_m1), caspase-11 (Mm00432307_m1), Nlrp3 (Mm00840904_m1), Asc (Mm00445747_g1), TBP (Mm00446971_m1) or GAPDH (Mm99999915_g1). ELISA for IL-1β, IL-2, IL-17, IL-18, TNFα and IFNγ were performed using Mouse Ready-SET-Go ELISA kits (eBioscience). To measure secreted cytokines, supernatant were collected, clarified by centrifugation and stored at −20° C. Cell associated cytokines were measured as follows: 96-well plates were centrifuged and supernatant was discarded. 250 μl of PBS were added to each well. Cells were frozen and thawed two times at −80° C. and then stored at −20° C. for further analysis.

Assay [2] relates to primary bone marrow-derived MΦs. Briefly: IL-1β release from macrophages (ELISA). An excerpt: (§1) C57BL/6J (Jax 000664), C57BL/6NJ (Jax 005304), CD14 KO (Jax 003726), caspase-1/-11 dKO mice (Jax 016621), TLR4-mutant (C3H/HeJ, Jax 000659), and wild-type control for TLR4-mutant (C3H/HeSNJ, Jax 000661) were purchased from Jackson Labs. NLRP3 KO and ASC KO mice were kindly provided by Dr. T. Horng, Harvard School of Public Health. Caspase-11 KO mice were kindly provided by Dr. Junying Yuan, Harvard Medical School. Caspase-1 single KO mice were kindly provided by Thirumala-Devi Kanneganti (St. Judes). DCs were differentiated from bone marrow in IMDM (Gibco), 10% B16-GM-CSF derived supernatant, 2 μM 2-mercaptoethanol and 10% FBS and used after 6 day of culture. DC purity was assessed by flow cytometry and was usually higher than 90%. […]
RNA was isolated from cell cultures using Qiashedder (Qiagen) and GeneJET RNA Purification Kit (Life Technologies). Purified RNA was analyzed for gene expression on a CFX384 real time cycler (Bio-rad) using TaqMan RNA-to-CT 1-Step Kit (Applied Biosystems) with probes purchased from Life Technologies specific for viperin (Mm00491265_m1), IFNb1 (Mm00439552_s1), IL6 (Mm00446190_m1), caspase-1 (Mm00438023_m1), caspase-11 (Mm00432307_m1), Nlrp3 (Mm00840904_m1), Asc (Mm00445747_g1), TBP (Mm00446971_m1) or GAPDH (Mm99999915_g1). ELISA for IL-1β, IL-2, IL-17, IL-18, TNFα and IFNγ were performed using Mouse Ready-SET-Go ELISA kits (eBioscience). […]

For assay [3], the system named is DCs. The assay can be described thus: TNFα secretion from DCs (ELISA). To be noted: WT and caspase-11 KO DCs.
Text: as §1, with “90%. MO were differentiated from bone marrow in DMEM (Gibco), 30% L929 supernatant, and 10% FBS. Immortal MΦs were cultured in DMEM supplemented with 10% L929 supernatant and 10% FBS. Splenic DCs were purified as described previously (Zanoni et al., 2012). Prior to stimulations, cultured cells were washed and re-plated in DMEM supplemented with 10% FBS at a concentration of 1×10^6 cells/ml in a final volume of 100 μl. For experiments using pan-caspase inhibitor, cells were treated with zVADfmk (20 μM) 30 min before inflammasome activation stimuli addition.” for “90%.”
RNA was isolated from cell cultures using Qiashedder (Qiagen) and GeneJET RNA Purification Kit (Life Technologies). Purified RNA was analyzed for gene expression on a CFX384 real time cycler (Bio-rad) using TaqMan RNA-to-CT 1-Step Kit (Applied Biosystems) with probes purchased from Life Technologies specific for viperin (Mm00491265_m1), IFNb1 (Mm00439552_s1), IL6 (Mm00446190_m1), caspase-1 (Mm00438023_m1), caspase-11 (Mm00432307_m1), Nlrp3 (Mm00840904_m1), Asc (Mm00445747_g1), TBP (Mm00446971_m1) or GAPDH (Mm99999915_g1). ELISA for IL-1β, IL-2, IL-17, IL-18, TNFα and IFNγ were performed using Mouse Ready-SET-Go ELISA kits (eBioscience). […] Cell associated cytokines were measured as follows: 96-well plates were centrifuged and supernatant was discarded. […]
(In general: In an ELISA, binding on a coated surface is turned into a signal by an enzyme label.)

Assay [4] concerns LPS-pretreated DCs. Briefly: ASC and caspase-1 containing speck formation (immunofluorescence). To be noted: ATP 1 mM, oxPAPC 120 μM. On the procedure:
For live or permeability experiment, MitotTacker CMX-ROS (Life Technologies) or Zombie Red (BioLegend) dyes were used in according to manufacturer's instructions before fixation with 4% paraformaldehyde. After permeabilization step using 0.1% Triton X-100 0.2% BSA-PBS, cells were blocked in 2% BSA-PBS and incubated with rabbit anti-ASC pAb (AL177, Adipogen) and mouse anti-caspase-1 mAb (Casper-1, Adipogen) followed by Alexa Fluor 488-conjugated chicken anti-rabbit IgG (Life Technologies) and Alexa Fluor 568-conjugated goat anti-mouse IgG (Life Technologies) diluted in blocking buffer. Nuclei were counterstained with DAPI (Life Technologies) or DRAQ5 (BioLegend). A Zeiss Axiovert 200M confocal microscope or an Olympus BX41 fluorescence microscope was used to acquire images.

Assay [5] relates to DCs. The assay can be described thus: Pyroptosis / cell death by LDH release. The conditions noted are these: LPS-primed DCs. An excerpt: In addition to promoting IL-β release, inflammasome activation has been typically associated with the induction of cell death (Aachoui, Y., (2013b). Current opinion in microbiology 16, 319-326). Without wishing to be bound by theory, cell death via non-canonical inflammasomes is believed to depend upon the enzymatic activity of caspase-11, which must cleave at least two proteins, gasdermin d and pannexin-1 (Kayagaki, N. et al., (2015) Nature 526, 666-671; Shi, J. et al., (2015) Nature 526, 660-665; Yang, D. et al., (2015) Immunity 43, 923-932). […] To assess this possibility directly, pyroptosis induction after oxPAPC administration or LPS transfection in LPS-primed DCs was measured. Pyroptosis is characterized by a rapid loss of plasma membrane integrity, which should release cytoplasmic proteins (and organelles) from the cell body. LDH release in the supernatant was used to assess membrane permeabilization of the cell population during pyroptosis. LPS/ATP-treated cells released LDH starting 4 hours after treatment (FIG. 48A); this combination was a well-defined activator of inflammasome-mediated cell death (Aachoui, Y., (2013b). Current opinion in microbiology 16, 319-326). Cells transfected with LPS, independently from LPS priming, died at later time points than cells treated with ATP (FIG. 48A).

Assay [6] deals with DCs. Briefly: Single cell viability assay of inflammasome-containing cells (Zombie dye, active mitochondria). The conditions noted are these: LPS-pretreated DCs.
Experimental: BMDCs cells were treated with LPS (1 μg/mL) for 3 hours before inflammasome-inducing stimuli challenge. For live or permeability experiment, MitotTacker CMX-ROS (Life Technologies) or Zombie Red (BioLegend) dyes were used in according to manufacturer's instructions before fixation with 4% paraformaldehyde. After permeabilization step using 0.1% Triton X-100 0.2% BSA-PBS, cells were blocked in 2% BSA-PBS and incubated with rabbit anti-ASC pAb (AL177, Adipogen) and mouse anti-caspase-1 mAb (Casper-1, Adipogen) followed by Alexa Fluor 488-conjugated chicken anti-rabbit IgG (Life Technologies) and Alexa Fluor 568-conjugated goat anti-mouse IgG (Life Technologies) diluted in blocking buffer. Nuclei were counterstained with DAPI (Life Technologies) or DRAQ5 (BioLegend). A Zeiss Axiovert 200M confocal microscope or an Olympus BX41 fluorescence microscope was used to acquire images.
Assay [7] concerns DCs. Briefly: DC viability / survival (7-AAD staining). The conditions noted are these: up to 72 hours after treatment; ATP and oxPAPC in LPS-treated DCs. An excerpt: It was contemplated that living cells should resist staining with Zombie dye, a stain that labels the cytosol of cells whose plasma membranes have been disrupted. Cells with intact plasma membranes should also retain functional organelles. In contrast, pyroptotic cells should have lost their organelles and should stain strongly for Zombie dye. […] Moreover, not only did oxPAPC not induce pyroptosis, this lipid counteracted the slow acting death pathways activated by LPS in DCs (Zanoni, I. et al. (2009) Nature 460, 264-268). For this experiment, the health of individual cells within the population up to 72 hours after treatment was assessed by flow cytometry, using the viability stain 7-AAD, which detected genomic DNA within cells whose membranes had been permeabilized (Paterson, A. M. et al., (2011) J Immunol 187, 1097-1105).

Each structure is given as a SMILES string.

`Nc1ncnc2c1ncn2[C@@H]1O[C@H](COP(=O)(O)OP(=O)(O)OP(=O)(O)O)[C@@H](O)[C@H]1O` [ATP]: the IL-1β release result in assay [1] (BMDCs lacking caspase-1/-11 or ASC) is “completely lost”; in assay [1] (LPS-primed DCs), “elicit IL-1β release from DCs in a dose-dependent manner”; in assay [1] (LPS-primed caspase-11 KO DCs) it was “remained intact”; in assay [1] (NLRP3-deficient BMDCs) it was “NLRP3 dependent”; in assay [1] (Pam3CSK-primed caspase-11 KO cells), “remained intact”; in assay [2], “promoted the efficient release of IL-1β”. The “cell-associated IL-1β levels” value in assay [1] (LPS-primed, compared with LPS alone) was “similar”. Further, the TNFα secretion entry in assay [3] was “not affected”. Further, the “formation of ASC and caspase-1-containing specks” value in assay [4] is “induced the formation”. Also, the “time from which LDH was released” value in assay [5] was at least 4 h. Further, in assay [6], the “mitochondria and Zombie dye staining of cells containing ASC specks” value was “lost mitochondria and stained positive for Zombie dye”. Besides, the “DC viability (7-AAD)” value in assay [7] is reported as “diminished DC viability”.
